PubChem BioAssay (NCI)
Values after ≈ are worked out from the molar mass of the structure shown. Values joined by “and” are separate entries in the source; they are usually repeats but may differ in a detail not shown here. Equal entries are not always repeated.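 Cultured in 96-well plates, cells were exposed to test compound for 48 hours across five concentrations. GI50 = concentration required for 50% inhibition of growth. At the TGI there is no net growth.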 Where a SMILES comes first, the peptide text is derived from it. [ ]: non-standard residue; d: D form. The star is where a group is joined. NMeF = CN[CH](Cc1ccccc1)C(=O)O; NMeV = CN[CH](C(=O)O)C(C)C; Boc = CC(C)(C)OC(=O)*; OBn = c1ccc(CO*)cc1

Assays:
Experiment in all cases: inhibition of tumour cell growth, NCI panel, 48 h
UACC-257 melanoma = system: UACC-257 melanoma
U251 CNS = system: U251 CNS
SW-620 colon = system: SW-620 colon
OVCAR-3 ovarian = system: OVCAR-3 ovarian
HOP-62 NSCLC = system: HOP-62 NSCLC
HCT-116 colon = system: HCT-116 colon
EKVX NSCLC = system: EKVX NSCLC
K-562 leukemia = system: K-562 leukemia
A549 NSCLC = system: A549 NSCLC
TK-10 renal = system: TK-10 renal
NCI/ADR-RES ovarian = system: NCI/ADR-RES ovarian
DU-145 prostate = system: DU-145 prostate

Structure (SMILES)	TGI (UACC-257 melanoma) [µM]	TGI (U251 CNS) [µM]	TGI (SW-620 colon) [µM]	TGI (OVCAR-3 ovarian)	TGI (HOP-62 NSCLC)	TGI (HCT-116 colon)	TGI (EKVX NSCLC) [µM]	TGI (K-562 leukemia)	TGI (A549 NSCLC)	TGI (TK-10 renal)	TGI (NCI/ADR-RES ovarian) [µM]	TGI (DU-145 prostate)	GI50 (OVCAR-3 ovarian)	GI50 (HOP-62 NSCLC) [µg/mL]	GI50 (HCT-116 colon) [µg/mL]	GI50 (A549 NSCLC) [µg/mL]	GI50 (TK-10 renal) [µg/mL]	GI50 (DU-145 prostate) [µg/mL]	GI50 (UACC-257 melanoma)	GI50 (K-562 leukemia)
S=C1NC2=C(CSC/C2=C\c2ccc(Cl)cc2)C(c2ccc(Cl)cc2)N1 (stereo unspecified)	> 100	> 100	> 100	> 100 µM	> 100 µM	> 100 µM	> 100	> 100 µM	> 100 µM	> 100 µM	> 100	> 100 µM								
Cc1nc2nc(C)n(CCN3CCOCC3)c(=O)c2c(-c2cccc([N+](=O)[O-])c2)c1C(=O)CCCCCCCCCCN1CCC(c2ccccc2)(c2ccccc2)CC1				4.19 µg/mL	4.06 µg/mL	3.45 µg/mL			5.24 µg/mL	4.45 µg/mL		4.56 µg/mL	2.21 µg/mL	2.07 (≈ 2.55 µM)	1.63 (≈ 2 µM)	2.38 (≈ 2.93 µM)	2.41 (≈ 2.96 µM)	2.51 (≈ 3.09 µM)		
COC(=O)C1(C(=O)OC)N=C(C)OC1c1ccccc1O (stereo unspecified)	> 100	> 100	> 100	> 100 µM	> 100 µM	> 100 µM	> 100	> 100 µM	> 100 µM	> 100 µM	> 100	> 100 µM								
O=S1SC(=S)C2C=CC=NC21 (stereo unspecified)	29	35.1	> 100	56.2 µM		26.6 µM	26.1	> 100 µM	60.5 µM	32.2 µM	67.5	31.4 µM								
Cc1ccc2[nH]c3c(c(=O)n(C)c(=O)n3C)c2c1	> 100	> 100	> 100		> 100 µM	> 100 µM	> 100	> 100 µM	> 100 µM	> 100 µM	> 100	> 100 µM								
COc1ccc(N2C(=O)C(Cl)C2c2cc3cc(Br)ccc3nc2Cl)cc1 (stereo unspecified)	11.9		16.2	> 25 µM	20.4 µM	9.51 µM	9.86	> 25 µM	> 25 µM	15.5 µM	14.1	21.2 µM								
CCCCCCCCOC(=O)C12Oc3ccc(-c4ccc5c(c4O)C(O)=C4C(=O)CC(C)C(O)C4(C(=O)OCCCCCCCC)O5)c(O)c3C(O)=C1C(=O)CC(C)C2O (stereo unspecified)	> 100	27.5	> 100	> 100 µM		> 100 µM	> 100	17.4 µM	> 100 µM	> 100 µM	> 100	> 100 µM								
COc1cc(S(=O)(=O)Nc2ccc(-c3csc(N4C(=O)C(C)SC4c4cccs4)n3)cc2)ccc1Cl (stereo unspecified)			> 100	> 100 µM	> 100 µM	> 100 µM	> 100	> 100 µM			> 100	53.1 µM								
Cc1cc(O)c2c(c1)C(=O)c1c(c(O)cc(O)c1-c1c(O)cc(O)c3c1C(=O)c1cc(C)cc(O)c1C3=O)C2=O	50	46	124	21.6 µM	32.3 µM	33.7 µM	34.9	55.6 µM	65.9 µM		152									
Nc1nc(SCC(=O)c2ccccc2)c2[nH]cnc2n1	> 100	> 100	> 100	> 100 µM	> 100 µM	> 100 µM		> 100 µM	> 100 µM	> 100 µM										
C/C(O)=C(\C=N\C(=S)N=Nc1c(O)[nH]c2ccccc12)C(=O)Nc1ccccc1C	> 100	> 100	> 100	> 100 µM	> 100 µM	> 100 µM	> 100		> 100 µM	> 100 µM	> 100	> 100 µM								
Cc1ccc(Nc2cccc3c2C(=O)c2cccc(Nc4ccc(C)cc4S(=O)(=O)O)c2C3=O)c(S(=O)(=O)O)c1	> 100	> 100	> 100	> 100 µM	> 100 µM	> 100 µM	> 100	> 100 µM	> 100 µM	> 100 µM										
CC(=O)[O-].CC(=O)[O-].O=C(N/N=C/c1cc(Cl)cc(Cl)c1[OH2+])c1ccncc1.[Mn+2]	14.7	24.3	8.09	0.956 µM	68 µM	17.7 µM	7.76	14.8 µM	79.7 µM	27.3 µM										
CC(C)C(NC(=O)OC(C)(C)C)C(=O)N(C)C(Cc1ccccc1)C(=O)N(C)C(C(=O)OCc1ccccc1)C(C)C (stereo not drawn) (Boc-Val-[NMeF]-[NMeV]-OBn; configuration not given here)	> 100	> 100	> 100	> 100 µM	> 100 µM	> 100 µM	> 100	95.6 µM and > 100 µM	> 100 µM	> 100 µM			35.5 µM and > 100 µM						20.5 µM and 44.3 µM	12.1 µM and 51.4 µM
c1ccc(C2=NN2c2ccccc2)cc1	> 100	> 100	> 100	> 100 µM	> 100 µM		> 100	> 100 µM	> 100 µM	> 100 µM	> 100	> 100 µM								
Cc1cc(=O)oc2c1cc1ccc3cccc4ccc2c1c34		> 100	> 100	> 100 µM			> 100	> 100 µM		> 100 µM										
O[C@@]1(C#Cc2ccc3c(c2)OCO3)CCC[C@H]1NCc1ccccc1	63.9	59.6	> 100	47.4 µM	78.2 µM		> 100	41.5 µM	> 100 µM	70.6 µM	40.6	> 100 µM								
NS(=O)(=O)c1nnc(NS(=O)(=O)c2ccccc2[N+](=O)[O-])s1		> 100	> 100	> 100 µM	> 100 µM	> 100 µM	> 100	> 100 µM	> 100 µM	> 100 µM	> 100	> 100 µM								
C=C(C)C1CC[C@@](C)(O)[C@H](C#N)C1 (stereo partly specified)	> 100	> 100	> 100	> 100 µM	> 100 µM	> 100 µM	> 100	> 100 µM	> 100 µM	> 100 µM		> 100 µM								
